Source: a melting point compilation (Tetko et al.; mined from patent text by program, amines drawn as free bases though some values may be those of a salt)

SMILES | melting point
CCOc1ccc(-c2c(C(=O)OC)c(C(=O)OC)c(O)c3cc(OC)c(OC)c(OC)c23)cc1OCC | 138 to 140 °C
CCCOC1=CC(=O)C(C(=O)OCC)C(c2ccc(C)cc2)C1 (centres undefined) | 106 to 107 °C
N#CC1=C(c2c[nH]c3ccccc23)Nc2n[nH]cc2C1c1cccc2nonc12 (centres undefined) | 238 °C
COC(=O)Cn1c(=O)sc2cc(Br)c(Cl)cc21 | 209 to 210 °C
CC(=O)NCC=C1CCc2ccc3nc(C)sc3c21 | 184 to 186 °C
COc1ccc(-c2cc(N)n[nH]2)cc1OC | 124 to 125 °C
O=C(O)CCCCCCCCCCCCCCCCCCCCCI | 71 to 72 °C
N#Cc1ccc2c(c1)OC(=O)C(Br)C2Br (centres undefined) | 220 to 230 °C
CCCCc1nc2cncc(C)c2[nH]1 | 111 to 124 °C
COc1cccc(CNc2n[nH]c(N)c2C#N)c1 | 151 to 153 °C
Cc1nnc2n1-c1sc(CCC(=O)O)cc1C(c1ccccc1Cl)=NC2C (centres undefined) | 202 to 204 °C
O=[N+]([O-])c1ccc(C2CCOCC2)cc1 | 124 °C
Cc1cc(Br)cc(C)c1NC(=O)Nc1ccc(-n2nc(C(F)(F)F)cc2C(F)(F)F)cc1 | > 230 °C
OCc1cccc(/C=C/c2nc3cc(F)ccc3s2)n1 | 179 to 181 °C
CC1(c2ccc([N+](=O)[O-])cc2)C(=O)Nc2cc(Cl)ccc2C1=O (centres undefined) | 209 to 210 °C
CCOC(=O)C=Cc1ccc(Oc2nsnc(Cl)c2=O)cc1 | 126 to 128 °C
CN1C(=S)COC1=Nc1cccc(C(F)(F)F)c1 | 84 to 86 °C
COC(=O)c1ccc(C#C[Si](C)(C)C)cn1 | 45 °C
C=COCCONC(=O)c1cc(Cl)c(F)c(F)c1Nc1ccc(I)cc1F | 119 to 120 °C
CC(C)(C)c1cc(OCCCCCc2nnn[nH]2)cc(C(C)(C)C)c1O | 140 to 141 °C

Results, then the compound that gave them:

melting point | SMILES
155 to 157 °C | CC(C)c1nc(C(C)C)c(C(C)O)c(-c2ccc(F)cc2)c1-c1ccccc1 (centres undefined)
222 °C | Cc1ccc2c(=O)nc(-c3cccc(CCC(=O)O)n3)sc2c1
165 to 172 °C | BrCc1ccc(-c2nnn(C(c3ccccc3)(c3ccccc3)c3ccccc3)n2)cc1
159 to 160 °C | COC(=O)c1ccc(NC(=O)c2c(-c3ccccc3)c(-c3ccc(F)cc3)n(CC[C@@H]3C[C@H](CC(=O)OC(C)(C)C)OC(C)(C)O3)c2C(C)C)cc1
149 to 151 °C | CCOC(=O)C(C(=O)OCC)=C1NC(=O)N(Cc2ccccc2)C1=O
183 to 185 °C | COc1cc(N2CCN(C(=O)Cn3nc(C#N)c4cccnc43)CC2)ccc1Cl
210 to 211 °C | N#Cc1cnc(Nc2ccc(CCn3ccnc3)cc2)nc1-c1ccccc1
218 to 220 °C | CC(=O)Nc1ncc(CCc2ccc(N)cc2)s1
98 to 99 °C | CC(Cl)C(=O)Nc1nc(-c2ccccc2)cs1 (centres undefined)
216 to 218 °C | O=C(Oc1ccc(-c2cc3ccc(OC(=O)c4ccccc4)cc3s2)cc1)c1ccccc1
125 to 130 °C | O=C(c1cc(N2CCCCC2)ccn1)N(O)CCCc1ccccc1
220 to 222 °C | CC(C)[C@H](NC(=O)OCc1ccccn1)C(=O)N[C@@H](Cc1ccccc1)C[C@H](O)[C@H](Cc1ccccc1)NC(=O)[C@@H](NC(=O)OCc1ccccn1)C(C)C
175 to 178 °C | O=C(Nc1ccccc1)Nc1nc(C(O)CO)cs1 (centres undefined)
152 to 160 °C | O=C1C(CCC(O)c2ccc(F)cc2)C(c2ccc(-c3ccc(C4OC(CO)C(O)C(O)C4O)cc3)cc2O)N1c1ccccc1 (centres undefined)
120 to 122 °C | C#Cc1cn(-c2c(Cl)cc(C(F)(F)F)cc2Cl)c2ccccc12
120 to 121 °C | CC(O)CCc1ccc2c(c1)Cc1ccccc1-2 (centres undefined)
85 to 86 °C | COC(=O)C1CCC(OC2=C3N=c4ccccc4=C3C(Cc3ccc(F)cc3)C=C2)O1 (centres undefined)
124 to 125 °C | O=C(C1=Cc2ccccc2C1)C12CC3CC(CC(C3)C1)C2
216 to 217 °C | COc1ccc(CNc2nc(-c3ccccc3)c(-c3ccc(=O)n(C(C)C)n3)nc2C(=O)O)cc1
